Converted amounts (≈) assume the structure as drawn.
Columns and labels:
[1] = comparative tests on intrinsic dissolution; assay type: physicochemical; details: Acetonitrile/H2O (60/40), 500 ml, 37° C., 75 revolutions/minute, pellets 0.5 cm^2, UV at 246 nm
Procedure: A. Tests for evaluating the rate of intrinsic dissolution are carried out with the amorphous rimonabant obtained in Example 9 and the rimonabant in its crystalline form.
These tests are carried out under the following conditions: • Solution: Acetonitrile/H2O (60/40) • Volume: 500 ml • Temperature: 37° C. • Rotation speed: 75 revolutions/minute • Surface area of the pellets: 0.5 cm^2 • Compressive force on the pellets: 2 tonnes, 20 seconds • Assay method: UV at 246 nm • Equipment: Vankel “VK700”-Kontron “Uvikon 941+”
B. Tests are carried out with the amorphous surinabant obtained in Example 10 and the surinabant in its crystalline form. The test conditions are identical to those of the comparative tests carried out for rimonabant (see preceding section A).

[2] = stability under stressing conditions (100° C., X-ray powder diffractometry); assay type: physicochemical; details: same stressing conditions
Procedure: The apparatus used is a Bragg-Brentano-type DT 500 diffractometer from Siemens®. The line used is Kα1 of copper obtained at an accelerating voltage of 30 mA-40 kV. The diffractograms are recorded for angles of between 2° and 40° at the rate of 1°.min^−1 in Bragg 2-theta.
The physicochemical stability of the solid solution of powder obtained is determined at 100° C. without a controlled atmosphere, for 52 days. Several samples are placed in an oven adjusted to the temperature of 100° C. and analyzed at various times by X-ray powder diffractometry.
The physicochemical stability of the solid solution of Example 2 is determined at 100° C. without a controlled atmosphere, for 28 days. Several samples are placed in an oven adjusted to the temperature of 100° C., and are analyzed at various times by powder X-ray diffractometry.

[3] = water-solubility at pH 6.5; assay type: physicochemical
Procedure: (§1) These compounds are molecules which are relatively water-insoluble; their water-solubilities are respectively 0.1 μg/ml and 1 μg/l at pH=6.5. Furthermore, these compounds have high membrane permeability coefficients: respectively 78×10^−7 cm/s and 96×10^−7 cm/s on the Caco-2 cell model, as described by M. G. Gres et al., in Pharmaceutical Research, 1998, 15(5), 726-733.

[4] = membrane permeability on the Caco-2 cell model; assay type: in vitro ADME; details: human; Caco-2 cell model (Gres et al.); read-out: membrane permeability coefficient
Procedure: as §1

## Cc1c(C(=O)NN2CCCCC2)nn(-c2ccc(Cl)cc2Cl)c1-c1ccc(Cl)cc1 [amorphous rimonabant, N-Piperidino-5-(4-chlorophenyl)-1-(2,4-dichlorophenyl)-4-methylpyrazole-3-carboxamide]
[1]
  rate of intrinsic dissolution: 1.3 mg.min^−1.cm^−2

## CCc1c(C(=O)NN2CCCCC2)nn(-c2ccc(Cl)cc2Cl)c1-c1ccc(Br)cc1 [amorphous surinabant, N-piperidino-5-(4-bromophenyl)-1-(2,4-dichlorophenyl)-4-ethylpyrazole-3-carboxamide]
[2]
  time in which it becomes completely crystalline: ≤ 24 h
[1]
  rate of intrinsic dissolution: 0.85 mg.min^−1.cm^−2

## Cc1c(C(=O)NN2CCCCC2)nn(-c2ccc(Cl)cc2Cl)c1-c1ccc(Cl)cc1 [crystalline rimonabant, N-Piperidino-5-(4-chlorophenyl)-1-(2,4-dichlorophenyl)-4-methylpyrazole-3-carboxamide]
[1]
  rate of intrinsic dissolution: 0.7 mg.min^−1.cm^−2

## CCc1c(C(=O)NN2CCCCC2)nn(-c2ccc(Cl)cc2Cl)c1-c1ccc(Br)cc1 [crystalline surinabant, N-piperidino-5-(4-bromophenyl)-1-(2,4-dichlorophenyl)-4-ethylpyrazole-3-carboxamide]
[1]
  rate of intrinsic dissolution: 0.2 mg.min^−1.cm^−2

## Cc1c(C(=O)NN2CCCCC2)nn(-c2ccc(Cl)cc2Cl)c1-c1ccc(Cl)cc1 [rimonabant, N-Piperidino-5-(4-chlorophenyl)-1-(2,4-dichlorophenyl)-4-methylpyrazole-3-carboxamide]
[3]
  solubility: 0.1 µg/mL (≈ 0.216 µM)
[4]
  Papp: 7.8 ×10⁻⁶ cm/s

## CCc1c(C(=O)NN2CCCCC2)nn(-c2ccc(Cl)cc2Cl)c1-c1ccc(Br)cc1 [surinabant, N-piperidino-5-(4-bromophenyl)-1-(2,4-dichlorophenyl)-4-ethylpyrazole-3-carboxamide]
[3]
  solubility: 1 µg/mL (≈ 1.91 µM)
[4]
  Papp: 9.6 ×10⁻⁶ cm/s

Reference: patent publication US20100076023A1, “AMORPHOUS SOLID COMPOSITION CONTAINING A PYRAZOLE-3-CARBOXAMIDE IN AMORPHOUS FORM AND STABILISING CARRIERS” (SANOFI-AVENTIS, priority 2007, published 2010)
